Entries after “also recorded” stand apart in the source; their conditions may differ.

Four compounds from US8759340B2, “Benzodiazepinone compounds useful in the treatment of skin conditions” (The Regents of the University of Michigan, priority 2007, dated 2014) can be followed below.

The subject of one data set is Ramos cells. The data set is described as follows: Cytotoxicity against Ramos cells. The data set is classed as cell-based. The note with it: Homo sapiens, read-out: EC50 in causing death of Ramos cells. The source says:
The compounds described herein can be tested for activity against F1F0-ATPase by measuring ATP synthesis and ATP hydrolysis. In addition, the compounds described herein can be evaluated for cytotoxicity against Ramos cells. Inhibition of ATP synthesis and hydrolysis by the F1F0-ATPase and cytotoxicity in Ramos cells can be measured as described in K. M. Johnson et al. in Chemistry & Biology (2005) Vol. 12, pp. 485-496.

The subject of data set [1] is human foreskin fibroblasts (HFF). The data set is described as follows: Fibroblast proliferation assay. In kind it is cell-based. As to conditions: Homo sapiens; for inhibition at 1 µM / inhibition at 0.05 µM / inhibition at 0.1 µM / inhibition at 0.5 µM / inhibition at 5 µM / inhibition at 10 µM: 48 h, HFF, day 2, read-out: Percent Inhibition of Cells Per Concentration of Test Compound. The procedure: Fibroblasts obtained from the same tissue were grown in monolayer culture using Dulbecco's modified minimal essential medium supplemented with nonessential amino acids and 10% fetal bovine serum (DMEM-FBS) as culture medium. Both keratinocytes and fibroblasts were maintained at 37° C. in an atmosphere of 95% air and 5% CO2. Cells were subcultured by exposure to trypsin/ethylenediamine tetraacetic acid (EDTA) and used at passage 2-4.
(§1) Keratinocyte proliferation was assessed by seeding 4×10^4 cells per well in a 24-well plate using KGM as culture medium. After the cells had attached (overnight), they were washed and triplicate samples were harvested for zero-time counts. DMSO served as a negative control. Proliferation was measured on day 2 by releasing the cells with trypsin/EDTA and enumerating them using a particle counter (Coulter Electronics, Hialeah, Fla.). Fibroblast proliferation studies were conducted in a similar manner except that […] was used as culture medium.
(§2) KC refers to human keratinocytes. HFF refers to human foreskin fibroblasts. The cLogP values were calculated using ChemDraw™ (CambridgeSoft).

A further data set has as its system human keratinocytes (KC). The data set is described as follows: Keratinocyte proliferation assay. The data set is classed as cell-based. The note with it: Homo sapiens, Keratinocyte; for inhibition at 0.05 µM / inhibition at 0.1 µM / inhibition at 0.5 µM / inhibition at 1 µM / inhibition at 5 µM / inhibition at 10 µM: 48 h, KC, day 2, read-out: Percent Inhibition of Cells Per Concentration of Test Compound. Here is the method:
Epidermal keratinocytes were isolated from fresh tissue biopsies as described previously (Varani et al., (1994) J. Clin. Invest. 94:1747-1753). Primary and early passage cells were maintained in Keratinocyte Growth Medium (KGM) (Lonza). KGM contains the same basal medium as KBM but is further supplemented with a mixture of growth factors including 0.1 ng per mL EGF, 0.5 μg per mL insulin, and 0.4% bovine pituitary extract. In addition to using low-passage keratinocytes, we also used the HaCat line of immortalized human epidermal keratinocytes in some experiments. The immortalized keratinocytes were handled exactly as low-passage keratinocytes.
as §1, §2

Data set [2] relates to RA-induced epidermal hyperplasia. The data set is described as follows: Inhibition of RA-induced epidermal hyperplasia in human skin organ cultures. In kind it is cell-based. As to conditions: for Percent Reduction in Retinoid-Induced Hyperplasia (%): reduction in epidermal thickness vs RA alone, n=3. From the text: (§3) Replicate 6-mm punch biopsies of full-thickness psoriatic plaque skin were obtained from human skin donors with psoriasis. These biopsies were used in the transplant studies. Six-mm punch biopsies of sun-protected (hip) skin from non-psoriatic donors were obtained as controls. In addition, replicate 2-mm full-thickness punch biopsies of sun-protected hip skin were obtained from normal donors for use in organ culture studies.
(§4) Immediately upon biopsy, the replicate 2-mm punch biopsies (non-psoriatic skin only) were immersed in culture medium consisting of Keratinocyte Basal Medium (KBM) (Lonza, Walkersville, Md.). KBM is a low-Ca^2+, serum-free modification of MCDB-153 medium. It was supplemented with CaCl2 to bring the final Ca^2+ concentration to 1.4 mM. Biopsies were incubated in wells of a 24-well dish containing 400 μl of Ca^2+-supplemented KBM with or without additional treatments (RA and/or Compound H). Cultures were incubated at 37° C. in an atmosphere of 95% air and 5% CO2. Other than to maintain the tissue in a minimal volume of medium, nothing further was done to ensure a strict air-liquid interface. Incubation was for 8 days, with change of medium and fresh treatments provided every second day. At the end of the incubation period, tissue was fixed in 10% buffered formalin and examined histologically after staining with hematoxylin and eosin. Routinely, 3-6 tissue sections were prepared from each block. Epidermal thickness measurements were made at several sites in each tissue section (distance from the dermal-epidermal juncture to the top of the viable portion of the epithelium). The organ culture procedure employed here has been described in the past (Varani et al. (1993) Amer. J. Pathol. 142:189-198; and Varani et al., (1994) J. Clin. Invest. 94:1747-1753). In order to evaluate the toxicity of compound H, tissue was examined histologically and necrosis was assessed on a 0 to 4+ scale, with 0 indicating no change from control and 4+ indicating complete necrosis of the epidermis (n=6). Scores ≦1 were taken as normal.
The average epidermal thickness in the absence of RA was 70-90 μm, while the average epidermal thickness was 275 μm in cells exposed to RA.

Data set [3] relates to Human Skin Organ Cultures. The data set can be described thus: Toxicity (epidermal necrosis) in human skin organ cultures. In kind it is cell-based. The note with it: necrosis on 0 to 4+ scale, scores ≦1 normal, 8 days organ culture, n=6.
Text: as §3, §4

Take `Cc1ccccc1CC1N=C(c2ccc(F)cc2)c2cc(Cl)ccc2NC1=O` (stereo not drawn) [7-Chloro-5-(4-fluorophenyl)-3-(2-methylbenzyl)-1H-benzo[e][1,4]diazepin-2(3H)-one]: in the data set with Ramos cells, the EC50 is 7.9 µM.
In the case of `Cc1cccc(C)c1CC1N=C(c2ccc(O)cc2)c2cc(Cl)ccc2N(C)C1=O` (stereo not drawn) [Compound 1, (Z)-7-chloro-3-(2,6-dimethylbenzyl)-5-(4-hydroxyphenyl)-1-methyl-1H-benzo[e][1,4]diazepin-2(3H)-one], the inhibition at 1 µM in data set [1] was below 20%; with human keratinocytes (KC), at least 20%. Moreover, the inhibition at 0.05 µM (in data set [1] (Fibroblast); in the data set on human keratinocytes (KC)) was below 20% in each case. The inhibition at 0.1 µM (in data set [1] (Fibroblast); in the data set on human keratinocytes (KC)) was below 20% each time. Further, the inhibition at 0.5 µM (in data set [1] (Fibroblast); in the data set with human keratinocytes (KC)) was below 20% each time. The inhibition at 5 µM (in data set [1] (Fibroblast); with human keratinocytes (KC)) was at least 90% each time. Further, the inhibition at 10 µM (in data set [1] (Fibroblast); with human keratinocytes (KC)) was at least 90% each time. For the same compound, the EC50 in data set [1] (Fibroblast, based on the data from the cell proliferation assays, read-out: EC50 against proliferation of human foreskin fibroblasts) is 1400 ± 300 nM; in the data set on human keratinocytes (KC) (based on the data from the cell proliferation assays, read-out: EC50 against proliferation of human keratinocyte cells), 700 ± 100 nM. Moreover, the “Percent Reduction in Retinoid-Induced Hyperplasia (%)” value in data set [2] (0.5 μM compound H) was 40 + 10%; in data set [2] (1.0 μM compound H), 48 + 15%; in data set [2] (2.0 μM compound H), above 95%. The Toxicity entry in data set [3] (0.5 μM compound H, listed as Compound H) is “no detectable toxicity; also recorded: None detected”; in data set [3] (1.0 μM compound H, listed as Compound H), “no detectable toxicity; also recorded: None detected”; in data set [3] (2.0 μM compound H, listed as Compound H) it was 2.0 + 0.5; in data set [3] (2.0 μM compound H, listed as compound H) it was “Slight toxicity”.
A word on the melting point: it is the temperature of the solid-liquid transition. Compound `CCc1ccc(CC2N=C(c3ccc(F)cc3)c3cc(Cl)ccc3NC2=O)cc1CC` (stereo not drawn) [Compound 11, (Z)-7-Chloro-3-(3,4-diethylbenzyl)-5-(4-fluorophenyl)-1H-benzo[e][1,4]diazepin-2(3H)-one] yielded a melting point of 88 to 90 °C. The inhibition at 1 µM in data set [1] was below 20%. In data set [1] (Fibroblast), the inhibition at 0.05 µM is below 20%, the inhibition at 0.1 µM was below 20%, the inhibition at 0.5 µM was below 20% and the inhibition at 5 µM is below 20%. In addition, the inhibition at 10 µM in data set [1] (Fibroblast) was at least 90%. In the data set with human keratinocytes (KC), the inhibition at 0.05 µM was below 20%, the inhibition at 0.1 µM is below 20%, the inhibition at 0.5 µM is below 20% and the inhibition at 1 µM is below 20%. For the same compound, in the data set with human keratinocytes (KC), the inhibition at 5 µM was at least 90% and the inhibition at 10 µM was at least 90%.
In turn, `CC1=C(/C=C/C(C)=C/C=C/C(C)=C/C(=O)O)C(C)(C)CCC1` [RA, all-trans retinoic acid, reference compound] yielded an average epidermal thickness in data set [2] (exposed to RA alone, 70-90 μm in the absence of RA) of 275 μm.
